Target: Recombinant Human Poly(ADP-Ribose) Polymerase (PARP), PARP-1 (Homo sapiens (Human), UniProt P09874)
Conditions: read-out: PARP-1 (Ki); Table 1; text calls the values EC50s

Recombinant Human Poly(ADP-Ribose) Polymerase (PARP), PARP-1, sequence (P09874 whole entry): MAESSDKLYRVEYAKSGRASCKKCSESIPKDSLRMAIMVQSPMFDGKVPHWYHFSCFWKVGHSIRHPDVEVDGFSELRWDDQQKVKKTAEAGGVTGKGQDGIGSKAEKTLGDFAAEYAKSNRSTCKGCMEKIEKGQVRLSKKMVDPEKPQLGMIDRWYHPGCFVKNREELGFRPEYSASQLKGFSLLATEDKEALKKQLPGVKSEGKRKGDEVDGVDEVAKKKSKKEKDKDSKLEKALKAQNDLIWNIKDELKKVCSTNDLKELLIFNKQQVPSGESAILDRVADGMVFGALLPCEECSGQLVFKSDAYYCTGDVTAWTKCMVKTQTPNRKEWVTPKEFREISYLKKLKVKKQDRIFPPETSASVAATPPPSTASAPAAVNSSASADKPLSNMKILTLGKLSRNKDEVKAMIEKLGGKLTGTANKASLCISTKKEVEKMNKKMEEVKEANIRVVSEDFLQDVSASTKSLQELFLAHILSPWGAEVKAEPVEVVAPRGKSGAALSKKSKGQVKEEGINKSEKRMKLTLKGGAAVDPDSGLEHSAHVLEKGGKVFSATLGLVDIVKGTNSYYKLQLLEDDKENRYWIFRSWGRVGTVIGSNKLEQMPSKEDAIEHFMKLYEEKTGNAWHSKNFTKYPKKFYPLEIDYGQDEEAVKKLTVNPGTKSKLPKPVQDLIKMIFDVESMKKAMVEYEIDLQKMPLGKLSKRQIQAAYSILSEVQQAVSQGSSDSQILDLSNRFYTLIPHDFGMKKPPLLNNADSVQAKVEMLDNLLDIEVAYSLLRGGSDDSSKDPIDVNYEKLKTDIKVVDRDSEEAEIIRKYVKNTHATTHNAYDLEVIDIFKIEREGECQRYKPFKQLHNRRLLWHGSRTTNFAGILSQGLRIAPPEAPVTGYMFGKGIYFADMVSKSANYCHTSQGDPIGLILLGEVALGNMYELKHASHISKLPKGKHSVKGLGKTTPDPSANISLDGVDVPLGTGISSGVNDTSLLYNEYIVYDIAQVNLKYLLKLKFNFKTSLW

Ki	Compound
134 nM	Cc1ccc(NC(=O)c2cccc(Cc3n[nH]c(=O)c4c3CCCC4)c2)cc1Cl [Example 342, N-(3-chloro-4-methylphenyl)-3-((4-oxo-3,4,5,6,7,8-hexahydrophthalazin-1-yl)methyl)benzamide]
286 nM	O=C(Nc1cccc(Cc2n[nH]c(=O)c3c2CCCC3)n1)c1ccccc1 [Example 126, N-(6-((4-oxo-3,4,5,6,7,8-hexahydrophthalazin-1-yl)methyl)pyridin-2-yl)benzamide]
68 nM	CSc1ccc(Cl)c(C(=O)Nc2cccc(Cc3n[nH]c(=O)c4c3CCCC4)c2)c1 [Example 237, 2-chloro-5-(methylthio)-N-(3-((4-oxo-3,4,5,6,7,8-hexahydrophthalazin-1-yl)methyl)phenyl)benzamide]
4 nM	O=C(Nc1cccc(Cc2n[nH]c(=O)c3c2CCCC3)c1)c1ccc2ccccc2c1O [Example 236, 1-hydroxy-N-(3-((4-oxo-3,4,5,6,7,8-hexahydrophthalazin-1-yl)methyl)phenyl)-2-naphthamide]
243 nM	Nc1cccc(CCc2n[nH]c(=O)c3c2CCCC3)c1 [Example 260, 4-(2-(3-aminophenyl)ethyl)-5,6,7,8-tetrahydrophthalazin-1(2H)-one]
166 nM	O=C(Nc1cccc(Cc2n[nH]c(=O)c3c2CCCC3)c1)c1cc(F)ccc1F [Example 183, 2,5-difluoro-N-(3-((4-oxo-3,4,5,6,7,8-hexahydrophthalazin-1-yl)methyl)phenyl)benzamide]
33 nM	COc1ccc(NC(=O)c2cccc(Cc3n[nH]c(=O)c4c3CCCC4)c2)cc1F [Example 346, N-(3-fluoro-4-methoxyphenyl)-3-((4-oxo-3,4,5,6,7,8-hexahydrophthalazin-1-yl)methyl)benzamide]
2 nM	O=C(CCOc1ccccc1)Nc1cc(Cc2n[nH]c(=O)c3c2NCCC3)ccc1F [Example 478, N-(2-fluoro-5-((5-oxo-1,2,3,4,5,6-hexahydropyrido(2,3-d)pyridazin-8-yl)methyl)phenyl)-3-phenoxypropanamide]
11 nM	O=C(COCc1ccccc1)Nc1cccc(Cc2n[nH]c(=O)c3c2CCCC3)c1 [Example 142, 2-(benzyloxy)-N-(3-((4-oxo-3,4,5,6,7,8-hexahydrophthalazin-1-yl)methyl)phenyl)acetamide]
58 nM	O=C(NCc1cccnc1)c1cccc(Cc2n[nH]c(=O)c3c2CCCC3)c1 [Example 311, 3-((4-oxo-3,4,5,6,7,8-hexahydrophthalazin-1-yl)methyl)-N-(pyridin-3-ylmethyl)benzamide]
4 nM	Cn1cncc1C(=O)N1CCCN(C(=O)c2cc(Cc3n[nH]c(=O)c4c3CCCC4)ccc2F)CC1 [Example 637, 4-[4-fluoro-3-({4-[(1-methyl-1H-imidazol-5-yl)carbonyl]-1,4-diazepan-1-yl}carbonyl)benzyl]-5,6,7,8-tetrahydrophthalazin-1(2H)-one]
94 nM	O=C(Nc1nccs1)c1cccc(Cc2n[nH]c(=O)c3c2CCCC3)c1 [Example 319, 3-((4-oxo-3,4,5,6,7,8-hexahydrophthalazin-1-yl)methyl)-N-1,3-thiazol-2-ylbenzamide]
2 nM	CCN(CC)C(=O)N1CCN(C(=O)c2cc(Cc3n[nH]c(=O)c4c3CCCC4)ccc2F)CC1 [Example 530, N,N-diethyl-4-{2-fluoro-5-[(4-oxo-3,4,5,6,7,8-hexahydrophthalazin-1-yl)methyl]benzoyl}piperazine-1-carboxamide]
11 nM	O=C(CNC(=O)c1ccccc1)Nc1cccc(Cc2n[nH]c(=O)c3c2CCCC3)c1 [Example 160, N-(2-oxo-2-(3-((4-oxo-3,4,5,6,7,8-hexahydrophthalazin-1-yl)methyl)phenylamino)ethyl)benzamide]
395 nM	Cc1noc(C)c1C(=O)Nc1cccc(Cc2n[nH]c(=O)c3c2CCCC3)c1 [Example 209, 3,5-dimethyl-N-(3-((4-oxo-3,4,5,6,7,8-hexahydrophthalazin-1-yl)methyl)phenyl)isoxazole-4-carboxamide]

Reference: patent US9283222B2 (priority 2006, dated 2016)
